Source: the OPERA property sets (Mansouri et al. 2018)
In brackets after ≈: the same amount, converted by molar mass.

Settings: 25 °C

Compared with `CC=CC(O)CC` (stereo not drawn), `CCCC(O)CCC` is 9.4-fold lower in solubility: 380 mM (≈ 38100 µg/mL) for the first, 40.4 mM (≈ 4700 µg/mL) for the second.

`CCC[C@](C)(O)CC` and `CCCCC(C)(C)O` are within 1.5-fold of each other in solubility: 101 mM (≈ 11700 µg/mL) for the first, 83.5 mM (≈ 9700 µg/mL) for the second.

Compared with `CC(C)CCCO`, `CC(C)CCC(C)O` (stereo not drawn) is 1.8-fold lower in solubility: 73.4 mM (≈ 7500 µg/mL) for the first, 41.9 mM (≈ 4870 µg/mL) for the second.

First: C=CC(O)C(C)C (stereo not drawn)
Second: CC(C)C(C)O (stereo not drawn)
The solubility of the first is 2.1-fold lower: 305 mM (≈ 30600 µg/mL) for the first, 635 mM (≈ 56000 µg/mL) for the second.

First: CCCCCCCCCCO
Second: CCCCCCCCO
The solubility of the first is 18-fold lower: 0.234 mM (≈ 37 µg/mL) for the first, 4.15 mM (≈ 540 µg/mL) for the second.

For `CC(C)(C)CCCO`, the solubility was 28.5 mM (≈ 3310 µg/mL).

Same assay, conditions: 28 °C

Compound `CCCCC(C)(O)CC` (stereo not drawn) has a solubility of 23.2 mM (≈ 3020 µg/mL).

Same assay, conditions: 30 °C

For `CCCCCC(C)(C)O`, the solubility was 19.1 mM (≈ 2490 µg/mL).
